According to patent US7135466B2 (Kirin Beer Kabushiki Kaisha, priority 1999, dated 2006):
pIC50: −log10 of the molar value. Read-outs that look alike come from different tables or passages of the source.

How the values were obtained:
PDGF-Ra = molecular target: T1, PDGF-Ra (Homo sapiens, UniProt P16234); experiment: Inhibitory activity against PDGF-Ra phosphorylation by PDGF-AA stimulation using G292; format: cell-based; settings: > means inhibition at indicated concentration not more than 50%, < and << not less than 50%, read-out: PDGF (E) IC50
T1 construct: host or cells: G-292 human osteosarcoma cells
In short: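 Cells seeded in low-serum medium are exposed to test compound for one hour, then PDGF-AA (50 ng/ml) triggers receptor phosphorylation for 5 min at 37 °C. Phospho-PDGF-Ra in solubilized cells is quantified by anti-phosphotyrosine capture ELISA at 450 nm.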

c-kit = molecular target: T2, c-kit (Homo sapiens, UniProt P10721); experiment: Inhibitory activity against c-kit autophosphorylation (MO7e cells, h-SCF); format: cell-based; settings: for inhibition at 1 µM: Mo7e, figure within parentheses in −( ) or >1000( ), at 1000 nM; for pIC50: MO7e cells, read-out: c-kit IC50
T2 construct: MO7e (human megakaryocytic leukemia cell line) which had been arrested for 20 hr; endogenous in cells; host or cells: MO7e human megakaryocytic leukemia cell line
In short: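 Growth-arrested (20 hr) MO7e; cpd in DMSO, 1 hr; h-SCF 50 ng/ml, 5 min; lyse. ELISA: anti-pTyr (PY-20) capture, anti-c-kit 1° Ab, HRP anti-rabbit 2° Ab, A450.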

[1] = tested on: neointima of balloon-injured left carotid artery; experiment: Rat carotid balloon injury model; format: in vivo; settings: po, 336 h, in vivo, orally twice a day for 2 weeks, Wistar male rats, read-out: I/M ratio, inhibition (%)
Protocol: Rat Carotid Balloon Injury Model
Wistar male rats ([…]) were anesthetized with pentobarbital anesthesia, the right femoral region was incised from the rats, a Fogaty 2F catheter was inserted through the right femoral artery and was led to the left carotid artery, and abrasion was made three times with an expansion diameter of 2.5 mm.
The test compound was suspended in 1% cremophore, and the suspension was orally administered at 0.4 ml/100 g B.W. twice a day through an oral probe for rats for 2 weeks from the day before an operation. On the second week after the operation, the rats were sacrificed by ether. The left carotid artery was removed and was fixed in buffered formalin. Sliced preparations embedded in paraffin were stained with HE and were subjected to image analysis for the measurement of the neointima area (I) and media area (M) in the section of injured blood vessal. I/M was calculated as an index for the evaluation of drug efficacy.

human KDR = molecular target: T3, human KDR (Homo sapiens, UniProt P35968); experiment: Inhibitory activity against KDR phosphorylation (NIH 3T3 cells transfected with human KDR, VEGF); format: cell-based; settings: VEGF 100 ng/ml
T3 construct: expressed in transfected cells; host or cells: NIH 3T3 cells
Protocol: Measurement of Inhibitory Activity Against KDR Phosphorylation
NIH 3T3 cells (Sawano A et al., Cell Growth & Differentiation, 7, 213–221 (1996)) prepared by transfection of human KDR were cultured in a DMEM medium containing 10% FBS (GIBCO BRL) within a 5% carbon dioxide incubator until 50 to 70% confluent. The harvested cells were inoculated into wells of a collagen-type one-coat 96-well flat-bottom plate, each containing the same medium, in an amount of 1.5×10^4 per well, followed by cultivation at 37° C. overnight. The medium was then replaced by a DMEM medium containing 0.1% FBS. A solution of a test compound in dimethyl sulfoxide was added to each well, and the cultivation was carried out at 37° C. for additional one hr. A human recombinant vascular endothelial growth factor (hereinafter abbreviated to “VEGF”) was added to a concentration of 100 ng/ml, and the stimulation of cells was carried out at 37° C. for 2 min. The medium was removed, the cells were washed with phosphate buffered saline (pH 7.4), and 50 μl of a solubilization buffer (20 mM HEPES (pH 7.4), 150 mM NaCl, 0.2% Triton X-100, 10% glycerol, 5 mM sodium orthovanadylate, 5 mM disodium ethylenediaminetetraacetate, and 2 mM Na4P2O7) was then added thereto. The mixture was shaken at 4° C. for 2 hr to prepare a cell extract.
An anti-phospho-tyrosine antibody (PY20; Transduction Laboratories) was immobilized on a microplate for ELISA (Maxisorp; NUNC), and the whole quantity of the cell extract was transferred to the wells, and the immobilized antibody was reacted with the phosphorylated protein at 4° C. overnight. After washing, an anti-KDR antibody (Santa Cruz) was allowed to react at room temperature for one hr, and, further, after washing, a peroxidase-labeled anti-rabbit Ig antibody (Amersham) was allowed to react at room temperature for one hr. After washing, a chromophoric substrate for peroxidase (Sumitomo Bakelite Co., Ltd.) was added thereto and was allowed to react at room temperature. After a suitable level of color development, a reaction termination solution was added to stop the reaction, and the absorbance at 450 nm was measured with a microplate reader. The KDR phosphorylation activity for each well was determined by presuming the absorbance with the addition of VEGF and without the addition of the medicament to be 100% KDR phosphorylation activity and the absorbance without the medicament and VEGF to be 0% KDR phosphorylation activity.
The concentration of the test compound was varied on several levels, the inhibition (%) of KDR phosphorylation was determined for each case, and the concentration of the test compound necessary for inhibiting 50% of KDR phosphorylation (IC50) was calculated.

[2] = tested on: intima of balloon-injured coronary vessel; experiment: Porcine coronary balloon injury model; format: in vivo; settings: 10 mg/kg orally twice a day for 28 days, gelatin capsule, shoats
Protocol: Porcine Coronary Balloon Injury Model Edible shoats (24 to 31 kg) were anesthetized with telazol and xylazine, a balloon catheter was inserted through the femoral artery, and the descending branch in front of the heart on the left and the right rotator branch were injured under vasographing. For 28 days from the operation, the compound of Example 679 was orally administered as a gelatin capsule at a dose of 10 mg/kg twice a day. Further, only a gelatin capsule was administered as a control. In the test, each group consisted of 6 shoats. On the 28th day from the operation, the shoats were sacrificed with pentobarbital and were perfused with buffered formalin, and the heart was then removed. Paraffin embedded preparations of the injured blood vessel portion were sliced and stained with HE, followed by image analysis to measure the intima area (IA), media area (MA), and vessel area (VA), and the fissure length (FL) and vessel perimeter (VP) of the inner elastic plate. IA/MA and (IA/VA)/(FL/VP) were calculated as an index for the evaluation of drug efficacy.

T1 sequence (P16234 24-1089): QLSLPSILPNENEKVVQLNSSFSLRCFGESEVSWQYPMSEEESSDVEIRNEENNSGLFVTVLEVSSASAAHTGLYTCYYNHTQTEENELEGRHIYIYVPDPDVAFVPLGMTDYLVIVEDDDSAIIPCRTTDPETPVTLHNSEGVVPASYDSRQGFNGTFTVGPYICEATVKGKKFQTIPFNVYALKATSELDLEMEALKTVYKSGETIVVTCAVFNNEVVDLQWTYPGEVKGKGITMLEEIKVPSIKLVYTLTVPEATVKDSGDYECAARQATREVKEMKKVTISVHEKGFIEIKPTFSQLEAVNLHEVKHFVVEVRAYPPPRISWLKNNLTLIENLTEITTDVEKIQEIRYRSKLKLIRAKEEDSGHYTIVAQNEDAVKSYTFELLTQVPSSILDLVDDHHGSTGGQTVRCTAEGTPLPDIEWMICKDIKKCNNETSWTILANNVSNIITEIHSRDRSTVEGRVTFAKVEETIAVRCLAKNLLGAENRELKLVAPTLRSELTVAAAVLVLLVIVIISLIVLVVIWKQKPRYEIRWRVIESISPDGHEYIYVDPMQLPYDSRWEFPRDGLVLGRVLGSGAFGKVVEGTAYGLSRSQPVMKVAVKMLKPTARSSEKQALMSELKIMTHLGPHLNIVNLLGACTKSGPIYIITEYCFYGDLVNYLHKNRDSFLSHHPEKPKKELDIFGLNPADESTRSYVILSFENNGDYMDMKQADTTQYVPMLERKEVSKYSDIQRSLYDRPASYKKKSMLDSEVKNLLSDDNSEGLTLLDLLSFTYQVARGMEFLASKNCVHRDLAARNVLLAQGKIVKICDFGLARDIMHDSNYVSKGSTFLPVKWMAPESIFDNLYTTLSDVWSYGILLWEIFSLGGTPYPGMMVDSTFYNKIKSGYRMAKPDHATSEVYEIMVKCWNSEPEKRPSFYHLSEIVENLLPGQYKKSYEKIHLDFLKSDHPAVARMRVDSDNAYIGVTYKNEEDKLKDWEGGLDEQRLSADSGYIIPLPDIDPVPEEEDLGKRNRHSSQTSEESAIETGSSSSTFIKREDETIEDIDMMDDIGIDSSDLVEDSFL
T3 sequence (P35968 20-1356): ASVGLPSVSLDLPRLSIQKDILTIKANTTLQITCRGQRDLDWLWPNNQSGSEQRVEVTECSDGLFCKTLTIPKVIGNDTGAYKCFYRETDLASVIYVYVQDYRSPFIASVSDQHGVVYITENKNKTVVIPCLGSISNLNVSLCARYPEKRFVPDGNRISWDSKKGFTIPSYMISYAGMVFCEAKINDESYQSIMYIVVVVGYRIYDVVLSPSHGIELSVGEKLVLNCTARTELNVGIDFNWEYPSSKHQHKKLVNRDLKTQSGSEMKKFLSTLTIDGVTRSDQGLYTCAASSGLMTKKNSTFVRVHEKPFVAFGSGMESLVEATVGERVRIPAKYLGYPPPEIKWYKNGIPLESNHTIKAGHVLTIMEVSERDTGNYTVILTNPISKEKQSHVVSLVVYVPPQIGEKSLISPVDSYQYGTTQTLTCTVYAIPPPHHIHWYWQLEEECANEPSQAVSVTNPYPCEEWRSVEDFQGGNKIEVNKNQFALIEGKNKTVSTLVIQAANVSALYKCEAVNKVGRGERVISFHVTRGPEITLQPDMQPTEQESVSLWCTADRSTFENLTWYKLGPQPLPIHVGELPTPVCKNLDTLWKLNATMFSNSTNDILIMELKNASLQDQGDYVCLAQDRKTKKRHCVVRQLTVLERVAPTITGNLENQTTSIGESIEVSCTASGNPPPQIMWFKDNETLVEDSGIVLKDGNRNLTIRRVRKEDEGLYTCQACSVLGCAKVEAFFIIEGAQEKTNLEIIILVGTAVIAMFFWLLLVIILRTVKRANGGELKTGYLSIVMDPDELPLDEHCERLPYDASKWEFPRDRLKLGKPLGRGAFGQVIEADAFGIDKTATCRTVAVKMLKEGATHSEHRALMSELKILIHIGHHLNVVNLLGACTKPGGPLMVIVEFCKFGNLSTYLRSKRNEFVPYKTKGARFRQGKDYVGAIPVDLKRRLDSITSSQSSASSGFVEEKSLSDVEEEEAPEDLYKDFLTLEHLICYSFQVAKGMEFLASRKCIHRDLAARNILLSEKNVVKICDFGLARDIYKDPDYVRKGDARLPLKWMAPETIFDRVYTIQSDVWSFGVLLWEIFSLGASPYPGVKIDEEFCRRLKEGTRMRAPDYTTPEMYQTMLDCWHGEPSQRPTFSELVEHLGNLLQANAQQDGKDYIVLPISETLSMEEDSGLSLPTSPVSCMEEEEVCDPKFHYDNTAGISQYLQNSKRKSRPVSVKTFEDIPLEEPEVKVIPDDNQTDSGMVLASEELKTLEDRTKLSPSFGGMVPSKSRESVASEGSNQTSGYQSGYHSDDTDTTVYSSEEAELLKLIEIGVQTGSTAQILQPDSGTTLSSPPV
T2 sequence (P10721 26-976): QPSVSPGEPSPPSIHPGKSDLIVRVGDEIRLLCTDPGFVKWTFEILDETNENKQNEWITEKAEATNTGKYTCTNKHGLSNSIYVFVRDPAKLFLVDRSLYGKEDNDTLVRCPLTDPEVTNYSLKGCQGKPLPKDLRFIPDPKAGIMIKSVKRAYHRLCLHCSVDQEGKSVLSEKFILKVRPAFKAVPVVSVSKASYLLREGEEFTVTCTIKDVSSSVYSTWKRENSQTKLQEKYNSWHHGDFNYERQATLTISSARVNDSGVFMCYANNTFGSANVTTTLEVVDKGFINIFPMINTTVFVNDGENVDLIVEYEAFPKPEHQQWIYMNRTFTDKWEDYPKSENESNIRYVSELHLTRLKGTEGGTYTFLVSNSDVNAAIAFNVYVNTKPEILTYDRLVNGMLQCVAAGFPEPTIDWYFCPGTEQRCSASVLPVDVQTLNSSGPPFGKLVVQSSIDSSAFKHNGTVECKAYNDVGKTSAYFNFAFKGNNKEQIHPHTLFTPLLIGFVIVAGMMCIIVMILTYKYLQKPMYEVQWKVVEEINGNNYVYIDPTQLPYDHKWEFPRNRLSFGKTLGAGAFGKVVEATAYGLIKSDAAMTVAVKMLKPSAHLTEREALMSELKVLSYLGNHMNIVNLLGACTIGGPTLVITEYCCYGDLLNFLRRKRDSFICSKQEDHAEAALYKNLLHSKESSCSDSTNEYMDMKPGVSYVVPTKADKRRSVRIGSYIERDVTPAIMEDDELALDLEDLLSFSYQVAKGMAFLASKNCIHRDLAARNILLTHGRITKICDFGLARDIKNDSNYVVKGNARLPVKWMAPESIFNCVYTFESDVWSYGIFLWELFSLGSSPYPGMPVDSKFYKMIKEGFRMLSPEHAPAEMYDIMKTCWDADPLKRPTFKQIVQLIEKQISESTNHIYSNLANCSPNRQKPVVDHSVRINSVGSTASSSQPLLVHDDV

Compound	pIC50 (PDGF-Ra)	inhibition at 1 µM (c-kit) [%]	inhibition in vivo at 10 mg/kg [1] [%]	IC50 (human KDR) [nM]	pIC50 (c-kit; 50 ng/ml h-SCF)	(IA/VA)/(FL/VP) inhibition (%) [2]	IA/MA inhibition (%) [2]	inhibition in vivo at 30 mg/kg [1] [%]	pIC50 (PDGF-Ra; Pharmacological Test Example 1)	pIC50 (c-kit; h-SCF 50 ng/ml)
CCCCN(CCCC)CCNC(=O)Nc1ccc(Oc2ncnc3cc(OC)c(OC)cc23)cc1[N+](=O)[O-] [Example 687, N-[2-(Dibutylamino)ethyl]-N′-{4-[(6,7-dimethoxy-4-quinazolinyl)oxy]-2-nitrophenyl}urea]	7.59	34	17	176						
COc1cc2ncnc(Oc3ccc(NC(=O)NCCN4CCCCC4)c([N+](=O)[O-])c3)c2cc1OC [Example 679, N-{4-[(6,7-Dimethoxy-4-quinazolinyl)oxy]-2-nitrophenyl}-N′-(2-piperidinoethyl)urea]	> 8.00		54	323	6.47	47 (p < 0.001) %	36 (p < 0.05) %			
COc1cc2ncnc(Oc3ccc(NC(=O)N[C@H]4CCN(Cc5ccccc5)C4)cc3)c2cc1OC [Example 567, N-[(3S)-1-Benzyltetrahydro-1H-3-pyrrolyl]-N′-{4-[(6,7-dimethoxy-4-quinazolinyl)oxy]phenyl}urea]	7.68		24	> 1000	6.93					
COc1cc2nccc(Oc3ccc(NC(=O)NC4CCN(Cc5ccccc5)CC4)cc3)c2cc1OC [Example 590, N-{4-[(6,7-Dimethoxy-4-quinolyl)oxy]phenyl}-N′-[4-(N-benzyl)piperidinyl]urea]	7.27			> 1000	6.53			86		
CCN(CC)CCNC(=O)Nc1ccc(Oc2ccnc3cc(OC)c(OC)cc23)cc1 [Example 622, N-[2-(Diethylamino)ethyl]-N′-{4-[(6,7-dimethoxy-4-quinolyl)oxy]phenyl}urea]	7.96			> 1000	6.45			38		
CCN(CC)CCNC(=S)Nc1ccc(Oc2ncnc3cc(OC)c(OC)cc23)cc1 [Example 516, N-{4-[(6,7-Dimethoxy-4-quinazolinyl)oxy]phenyl}-N′-(2-diethylaminoethyl)thiourea]	7.30	27		> 1000				32		
COc1cc2nccc(Oc3ccc(NC(=O)OCCCN4CCOCC4)cc3)c2cc1OC [Example 421, 3-Morpholinopropyl N-{4-[(6,7-dimethoxy-4-quinolyl)oxy]phenyl}carbamate]	> 8.00			692	7.47			42		
C#CCC(CC)OC(=O)Nc1ccc(Oc2ccnc3cc(OC)c(OC)cc23)cc1 (stereo not shown) [Example 408, 1-Ethyl-3-butynyl N-{4-[(6,7-dimethoxy-4-quinolyl)oxy]phenyl}carbamate]	> 8.00			108	6.72			50		
COc1cc2nccc(Oc3ccc(NC(=S)NC(=O)c4ccccc4C)cc3)c2cc1OC [Example 614, N-{4-[(6,7-Dimethoxy-4-quinolyl)oxy]-phenyl}-N′-(2-methylbenzoyl)thiourea]	> 8.00			47	6.36			92		
COc1cc2nccc(Oc3cc(C)c(NC(=O)OC4CCCCCC4)cc3C)c2cc1OC [Example 287, Cycloheptyl N-{4-[(6,7-dimethoxy-4-quinolyl)oxy]-2,5-dimethylphenyl}carbamate]				> 1000				37	7.89	6.64
CCN(CC)CCNC(=O)Nc1ccc(Oc2ncnc3cc(OC)c(OC)cc23)cc1[N+](=O)[O-] [Example 647, N-[2-(Diethylamino)ethyl]-N′-{4-[(6,7-dimethoxy-4-quinazolinyl)oxy]-2-nitrophenyl}urea]	7.89		32	599	6.15					
